Literature values in patent US9663462B2, “Anti-parasitic methods and compositions utilizing diindolylmethane-related indoles” (BioResponse, L.L.C., priority 2006, dated 2017).

Experiments:
[1] = target: Leishmania donovani topoisomerase I (LdTOPILS); details: read-out: IC50, inhibition of Leishmania donovani topoisomerase I (LdTOPILS)
[2] = metabolic half life of DIM
[3] = once formed from I3C
[4] = tested on: estrogen-dependent and independent breast cancer cells; details: isolated DIM, cell culture
[5] = tested on: chemically induced forms of breast cancer; details: orally administered, animals
[6] = tested on: Human Papilloma Virus (HPV) oncogene altered cervical cancer cell lines
NFκB signaling pathway = details: breast cancer cells
rainbow trout = details: in vivo
[7] = tested on: Mitogen Activated Protein Kinase (MAPK) cell signaling pathway; details: cell culture

IC50 [1]: 1200 nM
half-life [2]: 2 to 7 h
stability in acid [3]: stable
Structure (SMILES): c1ccc2c(Cc3c[nH]c4ccccc34)c[nH]c2c1 [DIM, 3,3′-diindolylmethane]
apoptosis promoting effects [4]: apoptosis promoting effects
growth of chemically induced breast cancer [5]: inhibits the growth
induction of apoptosis [6]: induce apoptosis
activation of the NFκB signaling pathway (NFκB signaling pathway): reduce activation
estrogenic activity (breast cancer cells): estrogenic
estrogenic activity (rainbow trout): estrogenic
activation of MAPK cell signaling pathway [7]: activate
